Assays:
[1] = system: secretion of Substance P from DRG neurons; test: Substance P secretion, single-cell immunoblot assay; assay type: cell-based, chick; details: DRG neurons pre-incubated with peptide 1.4 μg/ml for 1 hour
Protocol: Secretion Assay: Secretion of substance P was analyzed using the single-cell immunoblot method adapted from Huang and Neher (Huang, L. Y., Neher, E. (1996) Neuron. 17, 135-45.). Briefly, polyvinylidene difluoride transfer membranes (Immobilon P brand from Millipore) were cut to […] and placed in a 6-well plate. Membranes were pre-wetted with methanol for 20 s, rinsed with distilled water and allowed to equilibrate in test solution for >1 hr. In parallel, DRG cells plated were incubated with media containing AP-YF or AP-Scr (1.4 μg/ml) for 1 hour. This media was removed, and replaced with 70 μl of test solution. The membranes were then placed on top of the cells, and allowed to incubate at 37° C. in a humidified CO2 incubator for 30 min. The membranes were then carefully removed from the cells and allowed to dry completely and fixed with powdered paraformaldehyde at 80° C. for 1 hr. Fixed membranes were rinsed in PBS (1 mM KH2PO4, 10 mM Na2HPO4, 137 mM NaCl, 2.7 mM KCl) containing 1% Triton X-100 (PBS-T) to remove excess paraformaldehyde, and blocked with PBS-T containing 3% fetal bovine serum (FBS) for 30 min at room temperature. The membranes were incubated with anti-substance P antibody (Santa Cruz) at 1:200 dilution in PBS-T with 1% FBS overnight in 37° C. incubator. The next day the membranes were developed with a peroxidase/diamninobenzidine (DAB) reaction using the ABC staining kit from Santa Cruz Biotechnology. Images were taken using a CCD camera, and analyzed using Photoshop and NIH image software. Data were plotted by assigning an upper and lower limit of gray values and plotting % of cells at a range within those limits. By plotting graphs as % of cells in a dynamic range, multiple experimental runs were pooled.

[2] = system: cell-surface myc-L1-CAM on ND-7 cells; test: L1-CAM diffusion behavior assay: movement of 9E10-coated beads bound to myc-L1-CAM (video microscopy, laser tweezers); assay type: cell-based, rat
Text: Video microscopy, laser tweezers, and data analysis: The 9E10-coated latex beads were then placed and held with an optical gradient laser trap on the surface of transfected cells at a distance of between 0.5 and 1 μm from the leading edge for 2 seconds. The laser trap consisted of a Titanium Sapphire (Coherent; model 890) solid state laser pumped by a 5 W frequency-doubled Neodymnium Vanadate laser (Verdi; Coherent) and tuned to 800 nm. This wavelength was previously determined to generate the fewest heating artifacts in live cells (Svoboda and Block. Biomol Struct 1994;23:-247-285 and Choquet et al. Cell 1997;88:39-48). Laser power at the output of the Titanium Sapphire laser was 40 mW, and prepared beads were placed and held on the cell surface for less than 3 sec to further reduce the possibility of heating artifacts. Laser light was introduced through the television port of the Axiovert microscope.
Video images of bead movement were collected using a newvicon camera (Dage MTI; VE-1000N) and background subtraction and contrast enhancement were carried using a Hamamatsu Argus 20 image processor. Raw data were recorded to sVHS video tape for subsequent analysis. Video recordings were subsequently digitized onto an Intel processor-based computer running the Isee imaging software (Isee Imaging) running under Red Hat Linux 7.1. Quantification of bead movement was carried out in Isee. Diffusional analysis was carried out using a custom spreadsheet in Excel (Microsoft). This spreadsheet carries out 4 operations: first, it scales the data from pixel measurements to nm using the appropriate scale factor (determined by the magnification used to observe bead movement); second, it subtracts the first point from all of the data, to set the origin at 0,0 (x,y coordinates); third, it rotates (in two dimensional space) the data around the origin so that the orientation of the cell is the same from trial to trial (here, the data was set so that the cells all face to the left); and fourth, the spreadsheet calculates the mean square displacement (MSD) data which are used to calculate diffusion coefficients and bead velocity. Individual traces were scored blind for classes of behavior. Statistical analysis of percentages of trials was carried out using chi-squared analysis or a Fisher's exact probability test.
MSD values were calculated as previously described (see Qian et al, 1991; Biophysical Journal 60 p910). For these calculations, the squared displacement (a^2+b^2; where a=xn+t−xn, b=a=yn+t−yn for any two points separated by time t) of the bead was calculated between two points in the data set. The mean of the squared displacements was calculated for each time interval t=1 to m, where m is the time interval that equals 10% of the length of the data set. The mean displacement was plotted with respect to time giving a curve with a linear or quadratic shape, depending on the behavior of the bead. Diffusion rates and velocity were calculated by fitting the curve with the equation MSD=4Dt+v^2t^2, where D is the diffusion coefficient, v is the velocity and t is time. D and v were calculated for each bead independently and presented as averages or as individual values, as described in each case.
Cell culture and transfection: ND-7 cells (rat neuroblastoma/DRG hybrid cells) were plated and transfected with pMyc-L1-CAM, pMyc-L1-CAM-YF, pMyc-L1-CAM-YH, or pMyc-L1-CAM-STOP expression constructs as described in Example 3, supra.
In some instances, ND-7 cells transfected with pMyc-L1-CAM were treated with the cytoskeletal inhibitor cytochalasin D (2 μM; Sigma) or nocadazole (1 μM; Sigma). For these experiments treatment with DMSO (0.01%) vehicle alone served as the negative control.
In some instances, ND-7 cells transfected with pMyc-L1-CAM were treated with neural growth factor (NGF) to stimulate phosphorylation of tyrosine 1229 (Y1229) of the L1-CAM cytoplasmic domain, and thereby inhibit ankyrin binding. […]

Cav2.2 channels = test: Calcium channel distribution by confocal indirect immunofluorescence in DRG neurons; assay type: cell-based, chicken; details: DRG neurons pretreated with peptide 1.4 μg/ml, 30 min
Protocol: Antibodies: Primary antibody: rabbit anti-pan α1 binds Ca channel (1:200 dilution, [1.5 μg/ml) [Alomone Labs; Jerusalem, Israel]. Secondary antibodies: (1:200 dilution, 10 μg/ml): tetramenthylrhodamine conjugated goat anti-rabbit IgG (H+L) [Molecular Probes; Eugene, OR]
Dorsal root ganglia were dissected from 11 to 12 day old embryos, incubated for 30 min in saline containing nominal Ca 2^+ and Mg 2^+, and 0.05% collagenase (type A, Boehringer Mannheim). Ganglia were dissociated mechanically into single cells by trituration in culture medium containing Dulbecco's modified Eagle's medium supplemented with 10% horse serum, 5% chicken embryo extract, penicillin, streptomycin, glutamine, and nerve growth factor. Cells were plated at a density of ˜50,000 cells/collagen-coated 35 mm tissue culture dish and studied between 1 and 3 days in vitro.
Immunohistochemistry: Cultures grown on poly-L-lysine cover glass slips were exposed to saline or 100 mM NE (norepinephrine), fixed and permeabilized in methanol at −20° C. for 15-minutes or 20 second (for residual experiment) followed by 3×5-min washes in PHEM Buffer [60 mM PIPES, 25 mM HEPES, 10 mM EGTA, 2 mM MgCl2, pH 6.9]. Cells were alternatively fixed with 4% paraformaldehyde in PHEM buffer, pH 6.9 for 20-min, washed 3×3-min with PHEM buffer and permeabilization with 0.1% Triton X-100/PHEM buffer for 3-min. Blocking was performed using 5% BSA in PHEM Buffer for 1-h at 4 C. Following overnight incubation with primary antibody in 1% BSA and 1% normal goat sera in PHEM Buffer at 4 C. After washes with PHEM Buffer, cover slips were incubated with fluorophore-conjugated secondary antibodies in 1% BSA PHEM Buffer for 1.5 hours at room temperature in the dark. […]
Images of fixed cells were obtained with a pinhole setting of 0.95 using a UV 100× 1.4NA oil Leica objective lens and an optical zoom between 1.4 and 2× at slow acquisition speed with 4× frame averaging accumulation. The number of sections was calculated by the Leica TCS software based on acquisition of sections at 240 nm intervals in the Z-plane. […]

[3] = ND-7 cells expressing myc-L1-CAM, 1.4 μg/ml peptide for 30 minutes

Sequence	high K^+-induced secretion of Substance P [1]	bead velocity compared to untreated controls ([2]; 1.4 μg/ml peptide)	Cav2.2 channel distribution (plasma membrane vs cytoplasm) (Cav2.2 channels)	percentage of beads showing stationary behavior [2, 3]	percentage of trials undergoing retrograde movement [2, 3]
RQIKIWFQNRRMKWKKFQGIFSGDENFQ [AP-Scramble]	did not affect secretion significantly	no significant effect	no effect	–	–
RQIKIWFQNRRMKWKKQFNEDGSFIGQF [AP-YF]	blocks high K^+-induced secretion	–	induces removal of Cav2.2 channels	reduced	increase

Reference: US7737250B2, “Peptides for treating axonal damage, inhibition of neurotransmitter release and pain transmission, and blocking calcium influx in neurons” (Mount Sinai School of Medicine of New York University, priority 2003, dated 2010)
